Reference: US8563730B2, “Pyrazole and fused pyrazole glucokinase activators” (Takeda San Diego, Inc., priority 2008, dated 2013)
Like-named read-outs stand apart in the source and are kept apart here.

Biological target: T1, GK (glucokinase, residues 12-465) (Homo sapiens, UniProt P35557)
T1 construct: I.D. No. 1 corresponds to residues 12-465 of glucokinase; made in house; host or cells: DH10b-T1r E. coli
T1 sequence (P35557 with tags, fused parts or gaps isoform P35557-2): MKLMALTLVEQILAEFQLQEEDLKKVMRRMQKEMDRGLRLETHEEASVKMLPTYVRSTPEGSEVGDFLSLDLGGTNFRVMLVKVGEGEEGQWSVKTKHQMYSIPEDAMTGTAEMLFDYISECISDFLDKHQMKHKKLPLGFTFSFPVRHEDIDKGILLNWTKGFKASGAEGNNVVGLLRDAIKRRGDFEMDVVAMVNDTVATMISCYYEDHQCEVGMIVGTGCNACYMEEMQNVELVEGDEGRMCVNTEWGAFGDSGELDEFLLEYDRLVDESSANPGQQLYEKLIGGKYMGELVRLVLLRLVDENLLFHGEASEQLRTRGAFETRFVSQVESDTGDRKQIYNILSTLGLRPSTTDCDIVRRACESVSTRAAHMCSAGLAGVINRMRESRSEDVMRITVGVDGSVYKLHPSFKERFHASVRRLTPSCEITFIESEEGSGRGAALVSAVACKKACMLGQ
Experiment: enzymatic glucokinase activity assay (ATP consumption, KinaseGlo luminescence)
Type: biochemical
Settings: 5 μM ATP, 5 mM Glucose, reported as bins; for EC50: Kact = concentration that displays 50% of the maximal increase in GK activity, 60 min, room temperature, read-out: pKact
From the text: The activity of compounds as glucokinase activators may be assayed in vitro, in vivo or in a cell line. Provided below is an enzymatic glucokinase activity assay.
Purified glucokinase may be obtained as follows. […] SEQ.
The expression of recombinant glucokinase protein may be carried out by transformation and growth of DH10b-T1r E. coli cells incorporating the (pFLAG-CTC) plasmid in LB media. Protein expression can be induced in this system by the addition of IPTG to the culture medium.
Recombinant protein may be isolated from cellular extracts by passage over Sepharose Q Fast Flow resin (Pharmacia). This partially purified GK extract may then be further purified by a second passage over Poros HQ10 (Applied Biosystems). The purity of GK may be determined on denaturing SDS-PAGE gel. Purified GK may then be concentrated to a final concentration of 20.0 mg/ml. After flash freezing in liquid nitrogen, the proteins can be stored at −78° C. in a buffer containing 25 mM TRIS-HCl pH 7.6, 50 mM NaCl, and 0.5 mM TCEP.
The activation properties of compounds for GK may be determined using a black 384-well-plate format under the following reaction conditions: 25 mM Hepes pH 7.2, 25 mM NaCl, 10 mM MgCl2, 0.01% Brij35, 1 mM DTT, 5 μM ATP, 5 mM Glucose 2% DMSO. The amount of ATP consumed may be determined quantitatively by addition of equal volume of luciferase reagent (luciferase+beetle luciferin—KinaseGlo Luminescent Kinase Assay kit from Promega). The luminescence intensity may be measured by using the Analyst HT from LJL Biosystems.
The reaction mixture may then be incubated at room temperature for 60 min, and quenched and developed by addition of 10 μL of luciferase reagent. Luminescence intensities of the resulting reaction mixtures may be measured after a 10 min incubation at room temperature. The luminescence intensity may be measured by using the Analyst HT from LJL Biosystems.
pKact and % ACTmax values may be calculated by non-linear curve fitting of the compound concentrations and luminescence intensities to a standard inhibition/activation equation.

[1] = calculated maximal gain in GK enzyme activity at a saturating concentration of the compound, read-out: % ACTmax
[2] = read-out: % ACTmax, calculated maximal gain in GK enzyme activity at a saturating concentration of the compound

EC50	Emax [1]	Compound	Emax [2]
1580 to 3160 nM	≥ 111%	O=C(Nc1cccc(F)n1)C(CC1CCOCC1)n1ncc2c(S(=O)(=O)C3CC3)cccc21 (stereo not shown) [Compound 147, 2-(4-(cyclopropylsulfonyl)-1H-indazol-1-yl)-N-(6-fluoropyridin-2-yl)-3-(tetrahydro-2H-pyran-4-yl)propanamide]	–
≤ 316 nM	106 to 110%	CCn1ccc(NC(=O)C(CC2CCOCC2)n2ncc3c(S(=O)(=O)C4CC4)c(F)ccc32)n1 (stereo not shown) [Compound 155, 2-(4-(cyclopropylsulfonyl)-5-fluoro-1H-indazol-1-yl)-N-(1-ethyl-1H-pyrazol-3-yl)-3-(tetrahydro-2H-pyran-4-yl)propanamide]	–
≥ 15800 nM	≤ 90%	O=C(Nc1ncc(Cl)s1)[C@@H](CC1CCOCC1)n1cc(S(=O)(=O)C2CC2)cn1 [Compound 40, (R)-N-(5-chlorothiazol-2-yl)-2-(4-(cyclopropylsulfonyl)-1H-pyrazol-1-yl)-3-(tetrahydro-2H-pyran-4-yl)propanamide]	–
398 to 1260 nM	90 to 100%	O=C(Nc1ncc(F)s1)C(CC1CCCC1)n1ncc2c(S(=O)(=O)C3CC3)cccc21 (stereo not shown) [Compound 62, 3-cyclopentyl-2-(4-(cyclopropylsulfonyl)-1H-indazol-1-yl)-N-(5-fluorothiazol-2-yl)propanamide]	–
1580 to 3160 nM	≤ 90%	O=C1CC[C@H](CC(C(=O)Nc2cnccn2)n2ncc3c(S(=O)(=O)C4CC4)cccc32)C1 (stereo partly drawn) [Compound 71, 2-(4-(cyclopropylsulfonyl)-1H-indazol-1-yl)-3-((R)-3-oxocyclopentyl)-N-(pyrazin-2-yl)propanamide]	–
≥ 15800 nM	106 to 110%	O=C(Nc1ncc(F)s1)[C@@H](CC1CCOCC1)n1ncc2c(S(=O)(=O)C3CC3)ccnc21 [Compound 139, (R)-2-(4-(cyclopropylsulfonyl)-1H-pyrazol[3,4-b]pyridin-1-yl)-N-(5-fluorothiazol-2-yl)-3-(tetrahydro-2H-pyran-4-yl)propanamide]	–
1580 to 3160 nM	90 to 100%	Cn1ccc(NC(=O)C(CC2CCOCC2)n2ncc3c(S(=O)(=O)C4CC4)cncc32)n1 (stereo not shown) [Compound 151, 2-(4-(cyclopropylsulfonyl)-1H-pyrazolo[3,4-c]pyridin-1-yl)-N-(1-methyl-1H-pyrazol-3-yl)-3-(tetrahydro-2H-pyran-4-yl)propanamide]	–
≤ 316 nM	106 to 110%	O=C(Nc1ncc(F)s1)C(CC1CCOCC1)n1ncc2c(S(=O)(=O)C3CC3)c(O)ccc21 (stereo not shown) [Compound 144, 2-(4-(cyclopropylsulfonyl)-5-hydroxy-1H-indazol-1-yl)-N-(5-fluorothiazol-2-yl)-3-(tetrahydro-2H-pyran-4-yl)propanamide]	–
≤ 316 nM	101 to 105%	O=C(Nc1ncc(F)s1)C(CC1CCOCC1)n1ncc2c(S(=O)(=O)C3CC3)ccnc21 (stereo not shown) [Compound 127, 2-(4-(cyclopropylsulfonyl)-1H-pyrazolo[3,4-b]pyridin-1-yl)-N-(5-fluorothiazol-2-yl)-3-(tetrahydro-2H-pyran-4-yl)propanamide]	–
3980 to 12600 nM	≥ 111%	O=C(Nc1ccc(Cl)cn1)C(CC1CCOCC1)n1cc(S(=O)(=O)C2CC2)cn1 (stereo not shown) [Compound 45, N-(5-chloropyridin-2-yl)-2-(4-(cyclopropylsulfonyl)-1H-pyrazol-1-yl)-3-(tetrahydro-2H-pyran-4-yl)propanamide]	–
≤ 316 nM	106 to 110%	O=C(Nc1ncc(F)s1)C(CC1CCOCC1)n1ncc2c(S(=O)(=O)C3CC3)cc(F)cc21 (stereo not shown) [Compound 115, 2-(4-(cyclopropylsulfonyl)-6-fluoro-1H-indazol-1-yl)-H-(5-fluorothiazol-2-yl)-3-(tetrahydro-2H-pyran-4-yl)propanamide]	–
≥ 15800 nM	101 to 105%	O=C(Nc1ncc(Cl)s1)[C@@H](CC1CCOCC1)n1cc(S(=O)(=O)C2CCCC2)cn1 [Compound 58, (R)-N-(5-chlorothiazol-2-yl)-2-(4-(cyclopentylsulfonyl)-1H-pyrazol-1-yl)-3-(tetrahydro-2H-pyran-4-yl)propanamide]	–
≥ 15800 nM	≤ 90%	O=C(Nc1cnccn1)C(CC1CCOCC1)n1cc2c(S(=O)(=O)C3CC3)cncc2n1 (stereo not shown) [Compound 169, 2-(4-(cyclopropylsulfonyl)-2H-pyrazolo[3,4-c]pyridin-2-yl)-N-(pyrazin-2-yl)-3-(tetrahydro-2H-pyran-4-yl)propanamide]	–
398 to 1260 nM	90 to 100%	COc1ccc2c(cnn2C(CC2CCOCC2)C(=O)Nc2ccn(C)n2)c1S(=O)(=O)C1CC1 (racemic) [Compound 15, 2-(4-(cyclopropylsulfonyl)-5-methoxy-1H-indazol-1-yl)-N-(1-methyl-1H-pyrazol-3-yl)-3-(tetrahydro-2H-pyran-4-yl)propanamide]	–
≥ 15800 nM	90 to 100%	Cn1ccc(NC(=O)[C@@H](CC2CCOCC2)n2ncc3c(S(=O)(=O)C4CC4)cc(C#N)cc32)n1 [Compound 106, (R)-2-(6-cyano-4-(cyclopropylsulfonyl)-1H-indazol-1-yl)-N-(1-methyl-1H-pyrazol-3-yl)-3-(tetrahydro-2H-pyran-4-yl)propanamide]	–
398 to 1260 nM	90 to 100%	O=C(Nc1cnccn1)C(CC1CCOCC1)n1ncc2c(S(=O)(=O)C3CC3)cc(Cl)cc21 (stereo not shown) [Compound 102, 2-(6-chloro-4-(cyclopropylsulfonyl)-1H-indazol-1-yl)-N-(pyrazin-2-yl)-3-(tetrahydro-2H-pyran-4-yl)propanamide]	–
≤ 316 nM	90 to 100%	COc1cc(S(=O)(=O)C2CC2)c2cnn([C@@H](CC3CCOCC3)C(=O)Nc3ncc(F)s3)c2c1 [Compound 128, (S)-2-(4-(cyclopropylsulfonyl)-6-methoxy-1H-indazol-1-yl)-N-(5-fluorothiazol-2-yl)-3-(tetrahydro-2H-pyran-4-yl)propanamide]	–
3980 to 12600 nM	≥ 111%	O=C(Nc1ncc(Cl)s1)[C@@H](CC1CCOCC1)n1ncc2c(S(=O)(=O)C3CC3)cccc21 [Compound 63, (R)-N-(5-chlorothiazol-2-yl)-2-(4-(cyclopropylsulfonyl)-1H-indazol-1-yl)-3-(tetrahydro-2H-pyran-4-yl)propanamide]	–
≥ 15800 nM	≤ 90%	O=C(Nc1ncc(Cl)s1)C(CC1CCOCC1)n1ncc2ccc(S(=O)(=O)C3CC3)cc21 (stereo not shown) [Compound 60, N-(5-chlorothiazol-2-yl)-2-(6-(cyclopropylsulfonyl)-1H-indazol-1-yl)-3-(tetrahydro-2H-pyran-4-yl)propanamide]	–
≤ 316 nM	106 to 110%	O=C(Nc1ncc(Cl)s1)C(CC1CCOCC1)n1ncc2c(S(=O)(=O)C3CC3)cc(F)cc21 (stereo not shown) [Compound 67, N-(5-chlorothiazol-2-yl)-2-(4-(cyclopropylsulfonyl)-6-fluoro-1H-indazol-1-yl)-3-(tetrahydro-2H-pyran-4-yl)propanamide]	–

Compound	EC50	Emax [1]	Emax [2]
Nc1cc(S(=O)(=O)C2CC2)c2cnn([C@@H](CC3CCOCC3)C(=O)Nc3ncc(F)s3)c2n1 [Compound 112, (S)-2-(6-amino-4-(cyclopropylsulfonyl)-1H-pyrazol[3,4-b]pyridin-1-yl)-N-(5-fluorothiazol-2-yl)-3-(tetrahydro-2H-pyran-4-yl)propanamide]	≤ 316 nM	–	106 to 110%
NC(=O)c1ccc(NC(=O)[C@@H](CC2CCOCC2)n2ncc3c(S(=O)(=O)C4CC4)cccc32)nc1 [Compound 108, (R)-6-(2-(4-(cyclopropylsulfonyl)-1H-indazol-1-yl)-3-(tetrahydro-2H-pyran-4-yl)propanamido)nicotinamide]	3980 to 12600 nM	–	≥ 111%
O=C(Nc1cnccn1)C(CC1CCOCC1)n1ncc2c(S(=O)(=O)C3CC3)cncc21 (stereo not shown) [20 (Free Base), 2-(4-(cyclopropylsulfonyl)-1H-pyrazolo[3,4-c]pyridin-1-yl)-N-(pyrazin-2-yl)-3-(tetrahydro-2H-pyran-4-yl)propanamide]	398 to 1260 nM	–	101 to 105%
